Entries after “also recorded” stand apart in the source; their conditions may differ.
Legend:
Type in all cases: cell-based, human
JEG-3 cells [1] = test: CellTiter-Glo luminescent cell viability assay (HTTS); conditions: for Viability ↑, lowest concentration at which the mean response value exceeded the mean control value ± 2*SD (rough binning): increase; for cell viability relative to vehicle control (rough binning): after 24 h, in at least one concentration
Source text: (§1) JEG-3 human choriocarcinoma trophoblastic cells (American Type Culture Collection, VA, United States) were maintained in sterile-filtered Minimum Essential Media (MEM) supplemented with L-glutamine and phenol red (Thermo Fisher Scientific, MA, United States), 10% (v/v) heat-inactivated BenchMark Fetal Bovine Serum (Gemini Bio, CA, United States), 1% (v/v) sodium pyruvate (Thermo Fisher Scientific, MA, United States), and 1% (v/v) penicillin streptomycin (Sigma Aldrich, MO, United States). Cells were maintained in an incubator at 37°C with 5% CO2. JEG-3 cells were cultured in 10 cm tissue culture plates and cell passage numbers were recorded.
(§2) A total of 42 perfluoroalkyl substances (PFAS) were evaluated (Supplementary Table S1 contains source and purity). PFAS stock solutions were maintained in 100% methanol as previous work has shown certain PFAS degrade when stored in dimethyl sulfoxide (DMSO; [Gaballah et al., 2020]). […] The vehicle control group consisted of 97.5% media + 2.5% methanol to match the concentration of methanol in the media at the highest PFAS concentration tested (500 µM). Menadione (50–500 µM) was used as a positive control for cytotoxicity assessment. PFAS were de-identified and assigned random numbers to eliminate bias. Chemical exposure plate maps were designed so that all experimental conditions were tested in at least technical duplicates per plate. The outer edges of each plate received media alone and were excluded from all analyses to avoid edge effects. Each plate map included 14 technical replicates of the vehicle control group and 14 technical replicates of media only. Biological replicates were defined as separate 384 well plates tested on separate days using different cell passages. The experimental workflow is depicted in Supplementary Figure S1.
(§3) JEG-3 cells were counted using a Z2 Coulter Particle Counter (Beckman Coulter, CA, United States) and seeded at a density of 2,500 cells per well in black-walled, clear bottom 384 well plates (Corning, #3764) and allowed to adhere overnight. Approximately 24 h later, 384 well plates were imaged using an IncuCyte Zoom live cell imager (Essen BioScience Inc., MI, United States) to obtain baseline cellular confluence measurements prior to chemical dosing (0 h). Media was removed from wells and replaced with fresh media containing chemical treatments (exposure media) using a Viaflo liquid handling device (Integra Biosciences, NH, United States). Within 30 min of exposure media application, plates were again imaged for cellular confluence using the IncuCyte Zoom. Plates were incubated with exposure media for 24 h and then imaged again using the IncuCyte Zoom (24 h).
In the same plate evaluated for mitochondrial membrane potential, cell viability measures were duplexed using the CellTiter-Glo (CTG) Luminescent Cell Viability Assay (Promega, WI, United States). CTG reagent was added to each well at a volume of 20 µl. The plate was left at room temperature to incubate for 5 min and then 20 µl from each well was transferred to a low-volume, round-bottom, white 384 well plate (Corning, NY, United States). The CTG reagent lyses cellular and mitochondrial membranes and binds to adenosine triphosphate (ATP) released by cells, which produces a luminescence signal. The intensity of the luminescence was considered a proxy measure for the number of live cells in a well. The luminescence intensities were measured using the CLARIOstar plate reader.
HTTS data were analyzed using a custom data analysis script in R v 1.2.5019 ([R Core Team, 2019]). Briefly, raw data points corresponding to the confluence measurements at 0 and 24 h, the fluorescence intensities corresponding to MMP, and the relative luminescence units (RLU) corresponding to cell viability were imported directly from Microsoft Excel into the R programming environment, RStudio. Separate plates run on separate days using different JEG-3 passages were considered as biologic replicates. […]

JEG-3 cells [2] = test: Proliferation, change in confluence 0-24 h (IncuCyte Zoom, HTTS); conditions: for minimal effective concentration: read-out: Prolif ↓, lowest concentration at which the mean response value exceeded the mean control value ± 2*SD (rough binning); for Prolif ↑, lowest concentration at which the mean response value exceeded the mean control value ± 2*SD (rough binning) / Prolif ↓, lowest concentration at which the mean response value exceeded the mean control value ± 2*SD (rough binning): 24 h; for Prolif ↑, lowest concentration at which the mean response value exceeded the mean control value ± 2*SD (rough binning): increase; for cellular proliferation relative to vehicle control (rough binning): after 24 h, in at least one concentration; for Prolif ↓, lowest concentration at which the mean response value exceeded the mean control value ± 2*SD (rough binning): decrease
Source text: as §1, §2, §3
Plate well bottom images were evaluated using automated cell masking. The automated cell masking program was developed using IncuCyte Zoom base software. Cell masking parameters were defined using a training set of JEG-3 cell images obtained prior to conducting the experiments and following IncuCyte Zoom software recommendations. Briefly, the training images were obtained from cell culture plates with varying levels of JEG-3 cellular confluence (ranging from ∼15% confluent to ∼95% confluent). Parameters for the automated cell masking were first manually set by an experimenter for 3-6 images of low (∼15–30%), medium (∼30–70%), and high confluence (∼70% or greater). The training images were then evaluated by the automated masking program and manually checked to ensure the parameters were sufficiently strict to ignore background (e.g., blank space on the plate well bottom) but adequately sensitive to detect cell borders. The masking program was then implemented on the experimental plates to obtain a baseline cellular confluence measurement at 0 h and a second confluence measurement at 24 h. […]

JEG-3 cells [3] = test: Mitochondrial membrane potential, JC-10 assay (HTTS); conditions: for minimal effective concentration: read-out: MMP ↓, lowest concentration at which the mean response value exceeded the mean control value ± 2*SD (rough binning); for MMP relative to vehicle control (rough binning): after 24 h, in at least one concentration; for MMP ↓, lowest concentration at which the mean response value exceeded the mean control value ± 2*SD (rough binning): 24 h, decrease
Source text: as §1, §2, §3
The JC-10 assay (Enzo Life Sciences, NY, United States) was used to evaluate mitochondrial membrane potential, the main bioenergetic parameter that regulates respiratory rate, ATP synthesis and reactive oxygen species generation. In cells with polarized mitochondrial membranes, the JC-10 dye localizes to the mitochondrial matrix and forms red fluorescent aggregates (540/590 nm). In cells with depolarized mitochondrial membranes, the JC-10 dye localizes in the cytoplasm and converts to a green fluorescent monomer (490/525 nm). Mitochondrial membrane potential was calculated as the ratio of the green and red fluorescence intensities within a well.
At the end of the 24 h exposure period, exposure media was removed from the plate. The plate wells were then washed with 1x phosphate buffered saline (1x PBS). After washing, the JC-10 reagent was suspended in fresh 1x PBS and 20 µl was added to each well at a final concentration of 20 μM (Enzo Life Sciences, NY, United States). The plate was incubated for 1 h at 37°C, and the fluorescence intensities at excitation/emission wavelengths of 490/525 nm and 540/590 nm were measured using a CLARIOstar (BMG Labtech, Offenburg, Germany) plate reader, respectively.
HTTS data were analyzed using a custom data analysis script in R v 1.2.5019 ([R Core Team, 2019]). […]

[4] = Homo sapiens, JEG-3, 24 h, read-out: Proliferation EC50 ± SD, JEG-3 cells, 24 h exposure, four-parameter fit, estimates meeting inclusion criteria
[5] = Homo sapiens, JEG-3, 24 h, read-out: proliferation EC50 ± SE, JEG-3 cells, 24 h
[6] = Homo sapiens, JEG-3, 24 h, read-out: Viability EC50 ± SD, JEG-3 cells, 24 h exposure, four-parameter fit, estimates meeting inclusion criteria
[7] = Homo sapiens, JEG-3, 24 h, read-out: MMP EC50 ± SD, JEG-3 cells, 24 h exposure, four-parameter fit, estimates meeting inclusion criteria
[8] = read-out: MMP EC50 ± SD, JEG-3 cells, 24 h exposure, four-parameter fit, estimates meeting inclusion criteria
[9] = JEG-3 cells, 24 h exposure, four-parameter fit, estimates meeting inclusion criteria, read-out: Proliferation EC50 ± SD
[10] = JEG-3 cells, 24 h exposure, four-parameter fit, estimates meeting inclusion criteria, read-out: MMP EC50 ± SD
[11] = JEG-3 cells, 24 h exposure, four-parameter fit, estimates meeting inclusion criteria, read-out: Viability EC50 ± SD
[12] = JEG-3 cells, raw model output including fits that did not meet inclusion criteria, read-out: MMP EC50 ± SD (raw values)

SMILES	Viability ↑, lowest concentration at which the mean response value exceeded the mean control value ± 2*SD (rough binning) (JEG-3 cells [1]; JEG-3 cells, 24 h)	cell viability relative to vehicle control (rough binning) (JEG-3 cells [1])	minimal effective concentration (JEG-3 cells [2]; Homo sapiens, JEG-3, 24 h)	EC50 (JEG-3 cells [2]; [4])	cellular proliferation relative to vehicle control (rough binning) (JEG-3 cells [2])	EC50 (JEG-3 cells [1]; [6])	EC50 (JEG-3 cells [3]; [7])	MMP relative to vehicle control (rough binning) (JEG-3 cells [3])	EC50 (JEG-3 cells [2]; [9])	other results
O=P(O)(OCCC(F)(F)C(F)(F)C(F)(F)C(F)(F)C(F)(F)C(F)(F)F)OCCC(F)(F)C(F)(F)C(F)(F)C(F)(F)C(F)(F)C(F)(F)F [6:2 Fluorotelomer phosphate diester]	112.5 µM	increased cell viability	188 µM	142 ± 39.2 µM	reduced cellular proliferation; also recorded: increased cellular proliferation					EC50 (JEG-3 cells [2]; [5]): 142 ± 39.4 µM; Prolif ↑, lowest concentration at which the mean response value exceeded the mean control value ± 2*SD (rough binning) (JEG-3 cells [2]; JEG-3 cells): 37.5 µM; EC50 (JEG-3 cells [3]; Homo sapiens, JEG-3, read-out: MMP EC50 ± SD (raw values), JEG-3 cells, raw model output including fits that did not meet inclusion criteria): 64402 ± 10 µM
O=S(=O)(O)CCC(F)(F)C(F)(F)C(F)(F)C(F)(F)C(F)(F)C(F)(F)C(F)(F)C(F)(F)F [8:2 Fluorotelomer sulfonic acid]				321 ± 171 µM		160 ± 45.7 µM	331 ± 5.7 µM			EC50 (JEG-3 cells [1]; Homo sapiens, JEG-3, 24 h, read-out: viability EC50 ± SE, JEG-3 cells, 24 h): 160 ± 46 µM
CCN(CC(=O)O)S(=O)(=O)C(F)(F)C(F)(F)C(F)(F)C(F)(F)C(F)(F)C(F)(F)C(F)(F)C(F)(F)F [2-(N-Ethylperfluorooctanesulfonamido)acetic acid]		reduced cell viability	250 µM	204 ± 17.7 µM		203 ± 44.7 µM		reduced MMP		Viability ↓, lowest concentration at which the mean response value exceeded the mean control value ± 2*SD (rough binning) (JEG-3 cells [1]; JEG-3 cells, 24 h, decrease): 250 µM; EC50 (JEG-3 cells [2]; [5]): 204 ± 18 µM; Prolif ↑, lowest concentration at which the mean response value exceeded the mean control value ± 2*SD (rough binning) (JEG-3 cells [2]; JEG-3 cells): 50 µM; minimal effective concentration (JEG-3 cells [3]; Homo sapiens, JEG-3, 24 h): 150 µM
O=S(=O)(O)C(F)(F)C(F)(F)C(F)(F)C(F)(F)C(F)(F)C(F)(F)F [Perfluorohexanesulfonic acid]	50 µM	increased cell viability	350 µM	252 ± 21.7 µM	reduced cellular proliferation	289 ± 29.6 µM	86.2 µM			EC50 (JEG-3 cells [3]; Homo sapiens, JEG-3, 24 h, read-out: MMP EC50 ± SE, JEG-3 cells, 24 h): 86.2 ± 72.3 µM; EC50 (JEG-3 cells [3]; [8]): 86.6 ± 71.5 µM
O=C(O)C(F)(F)C(F)(F)OC(F)(F)F [Perfluoro-3-methoxypropanoic acid]				204 ± 111 µM		304 ± 28.2 µM	93.1 ± 132 µM			
Cc1ccc(S(=O)(=O)OCC(F)(F)C(F)(F)C(F)(F)C(F)(F)F)cc1 [1H,1H-Nonafluoropentyl p-toluenesulfonate]	50 µM	increased cell viability			reduced cellular proliferation				306 ± 47.9 µM	Prolif ↓, lowest concentration at which the mean response value exceeded the mean control value ± 2*SD (rough binning) (JEG-3 cells [2]; JEG-3 cells): 400 µM; EC50 (JEG-3 cells [3]; [10]): 159 ± 17.7 µM
O=S(=O)(O)C(F)(F)C(F)(F)C(F)(F)C(F)(F)F [Perfluorobutanesulfonic acid]	50 µM	increased cell viability						reduced MMP	223 ± 76.7 µM	EC50 (JEG-3 cells [1]; [11]): 330 ± 35 µM; MMP ↓, lowest concentration at which the mean response value exceeded the mean control value ± 2*SD (rough binning) (JEG-3 cells [3]; JEG-3 cells): 50 µM
O=C(O)C(F)(F)C(F)(F)C(F)(F)F [Perfluorobutanoic acid]	50 µM	increased cell viability						reduced MMP	209 ± 360 µM	EC50 (JEG-3 cells [1]; [11]): 226 ± 116 µM; MMP ↓, lowest concentration at which the mean response value exceeded the mean control value ± 2*SD (rough binning) (JEG-3 cells [3]; JEG-3 cells): 50 µM; EC50 (JEG-3 cells [3]; [12]): 52 µM
O=S(=O)(O)C(F)(F)C(F)(F)C(F)(F)C(F)(F)C(F)(F)C(F)(F)C(F)(F)F [Perfluoroheptanesulfonic acid]									296 ± 201 µM	EC50 (JEG-3 cells [1]; JEG-3 cells, raw model output including fits that did not meet inclusion criteria, read-out: Viability EC50 ± SD (raw values)): 1980 ± 2480 µM; Prolif ↓, lowest concentration at which the mean response value exceeded the mean control value ± 2*SD (rough binning) (JEG-3 cells [2]; JEG-3 cells): 232.5 µM; Prolif ↑, lowest concentration at which the mean response value exceeded the mean control value ± 2*SD (rough binning) (JEG-3 cells [2]; JEG-3 cells): 23.25 µM; EC50 (JEG-3 cells [3]; [12]): 874 ± 1750 µM
O=C(O)C(F)(F)OC(F)(F)C(F)(F)OC(F)(F)F [Perfluoro-3,6-dioxaheptanoic acid]	200 µM	increased cell viability	400 µM	351 ± 11.8 µM	reduced cellular proliferation	326 ± 85.7 µM	368 µM	reduced MMP		minimal effective concentration (JEG-3 cells [3]; Homo sapiens, JEG-3, 24 h): 400 µM; EC50 (JEG-3 cells [3]; [8]): 368 ± 22.6 µM
O=P(O)(O)OCCC(F)(F)C(F)(F)C(F)(F)C(F)(F)C(F)(F)C(F)(F)C(F)(F)C(F)(F)F [8:2 Fluorotelomer phosphate monoester]									251 ± 37.6 µM	EC50 (JEG-3 cells [1]; [11]): 360 ± 30.3 µM; EC50 (JEG-3 cells [3]; [10]): 312 ± 29.8 µM
